The source made the active and inactive calls. The rule behind the calls is not given here.
How the values were obtained:
[1] = target: Bacillus anthracis; assay: Inhibition of inosine and alanine-induced germination of Bacillus anthracis Sterne spore pre-incubated for 15 mins; assay type: functional, organism-based
[2] = system: Bacillus anthracis; assay: Inhibition of cytopathic effect in Bacillus anthracis Sterne infected mouse RAW264.7 macrophage after 6 hrs by propidium iodide exclusion assay; assay type: functional, organism-based
[3] = system: Bacillus anthracis; assay: Inhibition of cytopathic effect in Bacillus anthracis Sterne infected mouse RAW264.7 macrophage at 1 uM to 2 uM after 6 hrs by propidium iodide exclusion assay; assay type: functional; parameters: scale not given: the % may be the effect or the level left
[4] = system: Bacillus anthracis; assay: Inhibition of cytopathic effect in Bacillus anthracis Sterne infected mouse RAW264.7 macrophage assessed as lack of propidium iodide positive cells after 7 hrs; assay type: functional, organism-based

SMILES	Ki [1] [µM]	Activity [2]	Activity [3] [%]	Activity [4]
CSc1ncnc2c1ncn2[C@@H]1O[C@H](CO)[C@@H](O)[C@H]1O	31	inactive	–	–
Nc1nc(=S)c2ncn([C@@H]3O[C@H](CO)[C@@H](O)[C@H]3O)c2[nH]1 [THIOGUANOSINE]	98	–	88	Active
Nc1nc(Cl)c2ncn([C@@H]3O[C@H](CO)[C@@H](O)[C@H]3O)c2n1	87	inactive	–	–
Nc1nc(N)c2ncn([C@@H]3O[C@H](CO)[C@@H](O)[C@H]3O)c2n1	68	inactive	–	–
COc1nc(N)nc2c1ncn2[C@@H]1O[C@H](CO)[C@@H](O)[C@H]1O	34	inactive	–	–
OC[C@H]1O[C@@H](n2cnc3c(O)nc(O)nc32)[C@H](O)[C@@H]1O [XANTHOSINE]	777	inactive	–	–

From ChEMBL document CHEMBL1147065, “Identification of an in vivo inhibitor of Bacillus anthracis spore germination” (J Biol Chem, 2007)
